According to patent US20260183411A1, “TARGETING SORTILIN” (priority 2024, published 2026):
Blank lines part the entries; values can stand above or below the molecule they belong to. Where no end group is shown, it is not given here. [ ]: non-standard residue; d: D form. Cba = N[C@@H](CC1CCC1)C(=O)O; Tle = CC(C)(C)[C@H](N)C(=O)O

Assays:
[1] = Murine hematotoxicity assay; format: in vivo, mouse; conditions: 3 mg/kg i.v. QW×4, BALB/c mice
Experimental: (§1) Murine hematotoxicity experiments were conducted at Charles River Laboratories and the care and use of animals was conducted in accordance with the regulations of the Association for Assessment and Accreditation of Laboratory Animal Care (AAALAC). Wild type BALB/c, female, 7-8 weeks, weighing approximately 18-22 g were randomized and dosed intravenously with control or test articles at a QW×4 schedule. Dosing volume was adjusted based on body weight and was administered at 10 mL/Kg. PDCs were dissolved in 25 mM Histidine 10% sucrose pH 7 and 3 mg/kg was administered. Free MMAE payload was also tested, and similarly dissolved in 25 mM Histidine 10% sucrose pH 7 and administered to the mice at a dose of […] by i.v. injection at a QW×4 schedule. 3 days following each dose, 150 μL of whole blood was collected via submandibular method and placed in K2 EDTA tubes stored on ice. Blood neutrophil counts were performed on the day of collection by IDEXX labs. Body weights were recorded twice a week until study endpoint.
as §1, with “As outlined in the material” for “Murine hematotoxicity experiments were conducted at Charles River Laboratories”, “methods” for “the care and use”, “Example 1, wild” for “animals was conducted in accordance with the regulations of the Association for Assessment and Accreditation of Laboratory Animal Care (AAALAC). Wild”, “PDCs were dissolved in 25 mM Histidine 10% sucrose pH 7 and 3 mg/kg was administered.” left out

MDA-MB-231 xenograft = assay: MDA-MB-231 murine xenograft efficacy model; format: in vivo, mouse
Experimental: Murine xenograft experiments were conducted at WuXi AppTec and/or Charles River Laboratories and the care and use of animals was conducted in accordance with the regulations of the Association for Assessment and Accreditation of Laboratory Animal Care (AAALAC). MDA-MB-231 tumor cells (ATCC, Manassas, VA, cat #HTB-26) were grown and maintained in L15 medium supplemented with 10% heat inactivated fetal bovine serum, 1% Antibiotic-Antimycotic, and L-glutamine (2 mM) at 37° C. in an atmosphere in 5% CO2, 95% air. BALB/c Nude, female, 6-8 weeks, weighing approximately 18-22 g were purchased from Vital River Laboratory Animal Technology Co., LTD. Mice were inoculated subcutaneously at the right flank with MDA-MB-231 tumor cells (e.g., triple negative breast cancer cells) (10×10^6) in 0.2 mL of PBS with Matrigel (1:1) for tumor development. Animals were randomized and treatment was started when the average tumor volume reached approximately 150-200 mm^3 for the efficacy study. Dosing volume was adjusted based on body weight and was administered at 10 mL/Kg. […] Free MMAE payload was also tested, and similarly dissolved in 25 mM Histidine 10% sucrose pH 7 and one or more of the following doses, 0.6, 0.06 mg/kg, were administered to the mice i.v. at a QW×4 schedule. Tumor sizes were measured twice weekly in two dimensions using a caliper, and the volume in mm^3 calculated using the formula: V=0.5 a×b^2, where a and b are the long and short diameters of the tumor, respectively. TGI was calculated for each group using the formula: TGI (%)=[1−(Ti−T0)/(Vi−V0)]×100; where Ti is the average tumor volume of a treatment group on a given day, TO is the average tumor volume of the treatment group on the first day of treatment, Vi is the average tumor volume of the vehicle control group on the same day with Ti, and V0 is the average tumor volume of the vehicle group on the first day of treatment.
To characterize the effects of the MMAE payload alone, we included free MMAE at molar equivalency to PDCs, and tested at 0.6 and 0.06 mg/kg, as separate arms.
To characterize the effects of the MMAE payload alone, we included free MMAE at molar equivalency to PDCs, and tested at 0.6 mg/kg.

[2] = Dynamic light scattering (solubility/aggregation); format: physicochemical; conditions: working concentrations (250 nM, PBS, pH 7.4)
Experimental: Samples were spun down on a bench top centrifuge, 15 minutes, 15,000 rpm, room temperature, to pellet any aggregated peptide/dust before taking a measurement. Visual inspection of the tubes was used to identify if any large pellets were formed, which is indicative of large aggregates. […] The plate was then transferred and read on the DLS instrument (Wyatt Technology DynaPro Plate Reader III) at 25° C.

[3] = Murine serum stability assay; format: in vitro ADME, mouse; conditions: mouse, serum; linear peptides, Table 11; read-out: Murine serum stability assay, T1/2
Experimental: Serum was drawn from male CD-1 mice by Pharmidex. Lyophilized peptides were solubilized in DMSO and then further diluted into male mouse (CD-1) serum at 37° C. in duplicates. The reaction was incubated at 37° C. and samples extracted at 6 time points: 0, 0.16, 0.5, 1, 3, and 6 hrs. Acetonitrile (ACN) with an internal standard (tolbutamide) was added to stop the incubation. Samples were centrifuged, and the supernatant was analyzed by HPLC-MS/MS for the parent compound.

cyno SORT1 (76-753)-His = biological target: T1, cyno SORT1 (76-753)-His (cyno, UniProt A0A2K5VHG2 74-751); assay: SPR (Biacore 8K), SORT1 on CM5 chip, unconjugated peptide with conjugation handles as analyte, 1:1 model
T1 construct: range 76-753; Amine-coupled to CM5 chip for SPR
T1 sequence: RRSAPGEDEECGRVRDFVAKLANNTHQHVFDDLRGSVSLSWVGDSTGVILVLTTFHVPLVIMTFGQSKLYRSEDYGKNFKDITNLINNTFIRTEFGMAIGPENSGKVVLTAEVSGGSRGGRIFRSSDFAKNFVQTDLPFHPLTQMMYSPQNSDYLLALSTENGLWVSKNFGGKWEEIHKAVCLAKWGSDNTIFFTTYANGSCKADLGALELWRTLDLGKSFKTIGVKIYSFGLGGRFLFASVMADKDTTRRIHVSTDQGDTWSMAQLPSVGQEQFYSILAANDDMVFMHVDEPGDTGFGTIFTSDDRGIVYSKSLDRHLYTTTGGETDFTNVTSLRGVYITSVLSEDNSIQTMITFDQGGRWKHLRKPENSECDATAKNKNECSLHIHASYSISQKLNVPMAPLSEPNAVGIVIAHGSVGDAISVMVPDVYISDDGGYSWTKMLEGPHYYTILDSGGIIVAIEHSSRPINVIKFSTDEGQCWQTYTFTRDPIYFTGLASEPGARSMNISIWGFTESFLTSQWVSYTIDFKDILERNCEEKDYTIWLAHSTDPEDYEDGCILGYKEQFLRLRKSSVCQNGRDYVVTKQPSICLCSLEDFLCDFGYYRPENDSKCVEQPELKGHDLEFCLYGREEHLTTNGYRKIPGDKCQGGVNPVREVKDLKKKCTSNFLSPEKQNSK
Experimental: (§2) SPR analysis was performed on Series S CM5 chips (Cytiva) using a Biacore 8K instrument (Cytiva). Sensorgrams were double-referenced by subtracting the response on both a reference flow cell and a blank sample. Human SORT1 (78-755)-His (Acrobiosystems), human SORT1 (78-755)-His(GenScript), mouse SORT1 (76-753)-His (R&D Systems), rat SORT1 (76-752)-His (GenScript), and cyno SORT1 (76-753)-His (GenScript) were diluted to 20-60 μg/mL in 10 mM sodium acetate pH 4.5 buffer and immobilized onto Series S CM5 chips using amine coupling at a flow rate of 10 μL/min for 45-100 s.
(§3) Ten start-up cycles and a blank cycle preceded each analysis run. The runs were performed by sequential injections of analyte (0-20 nM, 3-fold serial dilutions) with a 90 s association and 900 s dissociation at a flow rate of 30 μL/min, followed by two regeneration cycles with 2 M MgCl2 for 90 s at a flow rate of 10 μL/min. […] Five start-up cycles and a blank cycle preceded each analysis run. The runs were performed by sequential injections of analyte (0-25 nM) with a 150 seconds (s) association and 300 s dissociation at a flow rate of 30 μL/min, followed by a regeneration with 2 M MgCl₂ for 200 s at a flow rate of 10 μL/min. The kinetic rate constants (kₐ and kd) and the equilibrium binding constant (Kd) were calculated using a 1:1 kinetic binding model on the Biacore Insight Evaluation Software (Cytiva).
(§4) SPR analysis was performed on Series S CM5 chips (Cytiva) using a Biacore 8K instrument (Cytiva). Sensorgrams were double-referenced by subtracting the response on both a reference flow cell and a blank sample. The SPR analysis was conducted using four different SORT1 species: Human SORT1, Mouse SORT1, Rat SORT1, and Cyno SORT1. The samples were prepared according to the general procedure described above herein. The kinetic rate constants (ka and […]) and the equilibrium binding constant (Kd) were calculated using a 1:1 kinetic binding model on the Biacore Insight Evaluation Software (Cytiva).

rat SORT1 (76-752)-His = biological target: T2, rat SORT1 (76-752)-His (rat, UniProt O54861 76-752); assay: as above
T2 construct: range 76-752; Amine-coupled to CM5 chip for SPR
T2 sequence (looked up): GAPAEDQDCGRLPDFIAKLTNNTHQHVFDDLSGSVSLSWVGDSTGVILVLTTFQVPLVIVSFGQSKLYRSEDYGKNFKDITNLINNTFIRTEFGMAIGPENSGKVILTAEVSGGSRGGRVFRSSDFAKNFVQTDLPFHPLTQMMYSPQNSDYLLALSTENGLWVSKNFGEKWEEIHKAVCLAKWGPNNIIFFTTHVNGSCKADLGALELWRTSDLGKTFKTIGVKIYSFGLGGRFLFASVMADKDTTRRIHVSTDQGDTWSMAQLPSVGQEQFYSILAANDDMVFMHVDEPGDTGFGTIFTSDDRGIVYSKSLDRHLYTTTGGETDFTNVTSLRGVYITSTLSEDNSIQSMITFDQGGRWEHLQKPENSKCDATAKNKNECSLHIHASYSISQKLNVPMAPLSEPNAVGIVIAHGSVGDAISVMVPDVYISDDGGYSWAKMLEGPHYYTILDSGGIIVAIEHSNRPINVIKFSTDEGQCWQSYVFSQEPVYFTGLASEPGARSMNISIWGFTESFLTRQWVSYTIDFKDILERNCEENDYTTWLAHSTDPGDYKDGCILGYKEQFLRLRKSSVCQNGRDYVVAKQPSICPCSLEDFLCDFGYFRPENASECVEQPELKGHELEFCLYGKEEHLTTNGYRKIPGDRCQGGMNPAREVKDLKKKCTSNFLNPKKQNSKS
Experimental: as §2, §3, §4

Molecule: CC[C@H](C)[C@@H]([C@@H](CC(=O)N1CCC[C@H]1[C@H](OC)[C@@H](C)C(=O)N[C@H](C)[C@@H](O)c1ccccc1)OC)N(C)C(=O)[C@@H](NC(=O)[C@H](C(C)C)N(C)C(=O)OCc1ccc(NC(=O)[C@H](CCCNC(N)=O)NC(=O)[C@@H](NC(=O)CCCC(=O)NCCC(=O)N(C)CC(=O)N(C)CC(=O)N(C)CC(=O)N(C)CC(=O)N[C@@H](C)C(=O)N2CCC[C@H]2C(=O)N[C@@H](CCCNC(=N)N)C(=O)N[C@@H](Cc2c[nH]c3ccccc23)C(=O)N[C@@H](CC(=O)O)C(=O)N[C@@H](C)C(=O)N2CCC[C@H]2C(=O)N[C@@H](CC(C)C)C(=O)N[C@@H](CCCNC(=N)N)C(=O)N[C@@H](CC(=O)O)C(=O)N2CCC[C@H]2C(=O)N[C@@H](C)C(=O)N[C@@H](CC(C)C)C(=O)N[C@@H](CCCNC(=N)N)C(=O)N[C@@H](CCC(N)=O)C(=O)N[C@H](C(=O)N[C@@H](CC2CCC2)C(=O)O)C(C)(C)C)C(C)C)cc1)C(C)C [Arb-SAR-Q15-PDC]
blood neutrophil counts compared to vehicle or MMAE treatment [1]: reduced neutrophil counts | tumor growth inhibited relative to vehicle (MDA-MB-231 xenograft; 3 mg/kg i.v. QW×4, day 22): 98% | body weight loss (Example 8) (MDA-MB-231 xenograft; PDCs 3 mg/kg, free MMAE at molar equivalency (0.6 mg/kg)): body weight loss tracked each other

solubility (DLS) [2]: good solubility | half-life [3]: 27.7 min
Molecule: CC(C)C[C@H](NC(=O)[C@H](CCCNC(=N)N)NC(=O)[C@H](CC(C)C)NC(=O)[C@H](C)NC(=O)[C@H](CC(C)C)NC(=O)[C@H](CCCNC(=N)N)NC(=O)[C@H](CCC(N)=O)NC(=O)[C@H](CC(C)C)NC(=O)[C@H](C)NC(=O)[C@@H]1CCCN1C(=O)[C@H](Cc1c[nH]c2ccccc12)NC(=O)[C@@H]1CCCN1C(=O)[C@H](C)NC(=O)[C@H](CCCNC(=N)N)NC(=O)[C@@H]1CCCN1C(=O)[C@H](CC(=O)O)NC(=O)[C@@H](N)CC(=O)O)C(=O)O [PRGN_RL]

solubility (DLS) [2]: good solubility | half-life [3]: 3.16 min
Molecule: CC(C)C[C@H](NC(=O)[C@H](CC(C)C)NC(=O)[C@H](CCC(N)=O)NC(=O)[C@H](CCCNC(=N)N)NC(=O)[C@H](CC(C)C)NC(=O)[C@H](C)NC(=O)[C@@H]1CCCN1C(=O)[C@H](CC(=O)O)NC(=O)[C@H](CCCNC(=N)N)NC(=O)[C@H](CC(C)C)NC(=O)[C@@H]1CCCN1C(=O)[C@H](C)NC(=O)[C@H](CC(=O)O)NC(=O)[C@H](Cc1c[nH]c2ccccc12)NC(=O)[C@H](CCCNC(=N)N)NC(=O)[C@@H]1CCCN1C(=O)[C@H](C)N)C(=O)O [PRGN_WT]

Kd (cyno SORT1 (76-753)-His): 0.152 nM | Kd (rat SORT1 (76-752)-His): 0.757 nM
B1: SORT1 peptide 2 (w/conjugation handles), unconjugated (peptide)
peptide: APRWDAPLRDPALRQ[Tle][Cba]
modifications: also: conjugation handles, not given here
notes: also called Arb-SAR-Q15
